From patent US9023858B2, “Substituted pyrido[2,3-d]pyrimidines as delta-5-desaturase inhibitors” (Takeda Pharmaceutical Company Limited, priority 2010, dated 2015)
Counter-ions that a name gives are not always drawn.

Tests used:
delta-5-desaturase [1] = molecular target: T1, delta-5-desaturase (Rattus norvegicus, UniProt Q920R3); assay: Delta-5-desaturase inhibitory activity using rat liver microsome; assay type: biochemical; settings: test compound 10 μM
T1 construct: a rat liver microsome fraction (10 μl) diluted to 3 mg/ml with a microsome buffer; from tissue; host or cells: rat liver microsome fraction
Experimental: Delta-5-Desaturase Inhibitory Activity Using Rat Liver Microsome
The inhibitory activity of the test compound on delta-5-desaturase was measured by the method described below. To a solution of the test compound in DMSO prepared in advance was secondarily diluted with a buffer (300 mM NaH2PO4 [pH 7.4], 450 mM KCl, 30 mM NaF, 9 mM MgCl2, 4.5 mM glutathione [reduced form], 0.3% BSA [fatty acid free, SIGMA]) to give an assay buffer. The assay buffer (10 μl) was dispensed to a polypropylene deep 96-well block, and a rat liver microsome fraction (10 μl) diluted to 3 mg/ml with a microsome buffer (10 mM Tris-HCl [pH 7.4], 1 mM EDTA, 250 mM sucrose) was added. The enzyme reaction was started by adding 9 mM NADH, 9 mM ATP, 0.9 mM CoA, 10 μCi/ml (8E,11E,14E)-(1-^14C)eicosa-8,11,14-trienoic acid (PerkinElmer Inc.) (10 μl). The enzyme reaction was performed for 120 min at room temperature, and discontinued by the addition of 10 μl of 2.5M NaOH. After discontinuation of the reaction, the plate was sealed and incubated overnight at 55° C. to allow saponification. The fatty acid was extracted with solvent based on the Bligh & Dyer method described in Can. J. Biochem. Physiol., vol. 37, page 911 (1959) by adding formic acid:methanol:chloroform (1:6:3) (200 μl), maintaining the single layer state, sufficiently stirring the mixture and adding pure water (120 μl) for separation into two layers. The lower chloroform layer (10 μl) was spotted on a reversed-phase TLC plate (RP-18, 1154230001, Merck Japan, Ltd.), developed with acetonitrile:pure water:acetic acid (95:4.5:0.5), and the dried TLC plate was transcribed on Imaging Plate (Fuji Photo Film Co., Ltd.) for 5 hr or longer. The detection was performed using BAS-5000 (Fuji Photo Film Co., Ltd.), and the obtained spot image was numerically converted by Multi Gauge Ver2.3 (Fuji Photo Film Co., Ltd.) and a delta-5-desaturase inhibitory rate (%) of 10 μM test compound was determined.

delta-5-desaturase [2] = molecular target: T1, delta-5-desaturase; assay: Inhibitory activity on binding of [3H]-labelled Reference Example 1 ligand to delta-5-desaturase (rat liver microsome fraction); settings: test compound 10 μM; for inhibition at 10 µM: 3 nM tritiated ligand of Reference Example 1, read-out: Binding inhibitory activity against compound bind to delta-5-desaturase Binding inhibition rate (%) at 10 μM
Experimental: Inhibitory Activity on Binding of N-[2-({4-oxo-3-[4-(2,2,2-trifluoroethoxy)[2,6-^3H2]phenyl]-3,4-dihydrothieno[3,4-d]pyrimidin-2-yl}sulfanyl)ethyl]acetamide (Reference Example 1) to delta-5-desaturase)
All tests were performed at room temperature at 200 μL/well. A rat liver microsome fraction (30 μg/well) was preincubated with a test compound at a final concentration of 10 μM for 15 min in an assay buffer (10 mM Tris-HCl (pH 7.5), 100 mM KCl, 10 mM NaF, 3 mM MgCl2, 0.005% Tween20 and 1 mM GSH). N-[2-({4-oxo-3-[4-(2,2,2-trifluoroethoxy) [2,6-^3H2]phenyl]-3,4-dihydrothieno[3,4-d]pyrimidin-2-yl}sulfanyl)ethyl]acetamide was added to a final concentration of 3 nM and the mixture was incubated for 150 min. For Bound/Free separation, the membrane fraction was added on a GF/C glass filter using a cell harvester. The GF/C glass filter was washed 5 times with 300 μl of ice-cooled assay buffer (without 0.005% Tween) to separate the ligand bound to delta-5-desaturase. 50 μl of MicroScinti 0 was added, and the radioactivity on the filter was measured by TopCount. To evaluate non-specific binding, 10 μM N-[2-({4-oxo-3-[4-(2,2,2-trifluoroethoxy)phenyl]-3,4-dihydrothieno[3,4-d]pyrimidin-2-yl}sulfanyl)ethyl]acetamide was used. The inhibitory rate (%) of the test compound (10 μM) on the binding of N-[2-({4-oxo-3-[4-(2,2,2-trifluoroethoxy) [2,6-^3H2]phenyl]-3,4-dihydrothieno[3,4-d]pyrimidin-2-yl}sulfanyl)ethyl]acetamide to delta-5-desaturase was determined.

delta-5-desaturase [3] = molecular target: T2, delta-5-desaturase (Homo sapiens, UniProt O60427); assay: Delta-5-desaturase inhibitory activity using HepG2 cell; assay type: cell-based; settings: test compound 1 μM
T2 construct: endogenous in cells; host or cells: HepG2
Experimental: Delta-5-Desaturase Inhibitory Activity Using HepG2 Cell
HepG2 was plated on a 96-well plate at 1×10^5 cells/well, and cultured overnight in DMEM (Dulbecco's modified Eagle medium) containing 10% FBS (fetal bovine serum). After washing (200 μL×2) with PBS (phosphate buffered saline), 40 μL of a reaction medium (DMEM, penicillin/streptomycin, 0.3% BSA) containing the test compound was added, and the mixture was preincubated in a CO2 incubator at 37° C. for 30 min. The reaction was started by adding a reaction medium (20 μL) containing 0.1 μCi [^14C]Eicosatrienoic acid, and the mixture was incubated in a CO2 incubator at 37° C. Incubation was performed for 3 hr, the cells were washed twice with 200 μL of PBS, detached with 50 μL of trypsin-EDTA and placed on a 96-deep well block. Furthermore, 20 μL of 2.5N NaOH was added, the plate was sealed and incubated overnight at 55° C. to allow saponification. The fatty acid extraction included acidifying with 10 μL of formic acid, adding chloroform:methanol (1:4), stirring, and further adding 200 μL of pure water to separate into two layers. The operation after development with TLC followed the method of detection system using TLC in a system using a rat liver microsome. A delta-5-desaturase inhibitory rate (%) of 1 μM test compound was determined.

T1 sequence (Q920R3 whole entry): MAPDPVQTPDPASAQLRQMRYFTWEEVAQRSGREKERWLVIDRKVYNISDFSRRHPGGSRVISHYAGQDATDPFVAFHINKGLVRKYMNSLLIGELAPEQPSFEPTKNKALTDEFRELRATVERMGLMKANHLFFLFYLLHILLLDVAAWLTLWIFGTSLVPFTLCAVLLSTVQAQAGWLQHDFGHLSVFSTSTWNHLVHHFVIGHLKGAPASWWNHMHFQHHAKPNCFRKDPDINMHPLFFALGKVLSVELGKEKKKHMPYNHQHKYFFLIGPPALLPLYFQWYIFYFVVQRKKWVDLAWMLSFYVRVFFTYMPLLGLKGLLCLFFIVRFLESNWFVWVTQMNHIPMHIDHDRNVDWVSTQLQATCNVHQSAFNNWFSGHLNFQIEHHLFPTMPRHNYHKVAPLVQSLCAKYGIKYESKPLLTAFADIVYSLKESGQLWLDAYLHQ
T2 sequence (O60427 whole entry): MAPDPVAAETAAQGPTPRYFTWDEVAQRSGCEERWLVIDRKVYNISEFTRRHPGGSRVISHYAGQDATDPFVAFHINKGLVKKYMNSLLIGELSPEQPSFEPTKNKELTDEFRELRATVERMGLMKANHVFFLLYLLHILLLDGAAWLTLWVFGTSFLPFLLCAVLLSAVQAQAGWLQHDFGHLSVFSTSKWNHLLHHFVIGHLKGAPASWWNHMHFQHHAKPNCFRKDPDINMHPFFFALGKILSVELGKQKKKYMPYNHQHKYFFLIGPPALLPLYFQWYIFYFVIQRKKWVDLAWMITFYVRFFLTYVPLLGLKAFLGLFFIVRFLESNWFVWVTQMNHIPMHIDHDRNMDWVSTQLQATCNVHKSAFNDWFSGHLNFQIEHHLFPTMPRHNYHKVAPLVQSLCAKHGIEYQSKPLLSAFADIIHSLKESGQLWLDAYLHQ

inhibition at 10 µM (delta-5-desaturase [1]) | inhibition at 10 µM (delta-5-desaturase [2]) | inhibition at 1 µM (delta-5-desaturase [3]) | delta-5-desaturase inhibitory activity (at liver microsome) Inhibitory activity (%) at 10 μM (delta-5-desaturase [1]; sodium salt, 10 µM) | Binding inhibitory activity against compound bind to delta-5-desaturase Binding inhibition rate (%) at 10 μM (delta-5-desaturase [2]; 3 nM tritiated ligand of Reference Example 1, sodium salt) | Structure (SMILES)
102% | 94% | 107% | – | – | COc1ccc2c(=O)n(-c3ccc(OCC(F)(F)F)cc3)c(SC)nc2n1 [Example 2, 7-methoxy-2-(methylsulfanyl)-3-[4-(2,2,2-trifluoroethoxy)phenyl]pyrido[2,3-d]pyrimidin-4(3H)-one]
102% | 97% | – | – | – | CCCSc1nc2nc(OC)ccc2c(=O)n1-c1ccc(OCC(F)(F)F)cc1 [Example 3, 7-methoxy-2-(propylsulfanyl)-3-[4-(2,2,2-trifluoroethoxy)phenyl]pyrido[2,3-d]pyrimidin-4(3H)-one]
101% | 93% | 95% | – | – | COc1ccc2c(=O)n(-c3ccc(OCC(F)(F)F)cc3)c(OCC(F)(F)F)nc2n1 [Example 5, 7-methoxy-2-(2,2,2-trifluoroethoxy)-3-[4-(2,2,2-trifluoroethoxy)phenyl]pyrido[2,3-d]pyrimidin-4(3H)-one]
99% | 97% | 101% | – | – | CCSc1nc2[nH]c(=O)ccc2c(=O)n1-c1ccc(OCC(F)(F)F)cc1 [Example 6, 2-(ethylsulfanyl)-3-[4-(2,2,2-trifluoroethoxy)phenyl]pyrido[2,3-d]pyrimidine-4,7(3H,8H)-dione]
– | – | – | 98% | 96% | CCSc1nc2[nH]c(=O)ccc2c(=O)n1-c1ccc(OCC(F)(F)F)cc1 [Example 7, 2-(ethylsulfanyl)-3-[4-(2,2,2-trifluoroethoxy)phenyl]pyrido[2,3-d]pyrimidine-4,7(3H,8H)-dione sodium salt]
99% | 96% | 103% | – | – | CCSc1nc2c(ccc(=O)n2C)c(=O)n1-c1ccc(OCC(F)(F)F)cc1 [Example 8, 2-(ethylsulfanyl)-8-methyl-3-[4-(2,2,2-trifluoroethoxy)phenyl]pyrido[2,3-d]pyrimidine-4,7(3H,8H)-dione]
99% | 96% | 97% | – | – | CCOc1nc2[nH]c(=O)ccc2c(=O)n1-c1ccc(OCC(F)(F)F)cc1 [Example 9, 2-ethoxy-3-[4-(2,2,2-trifluoroethoxy)phenyl]pyrido[2,3-d]pyrimidine-4,7(3H,8H)-dione]
100% | 95% | 98% | – | – | O=c1ccc2c(=O)n(-c3ccc(OCC(F)(F)F)cc3)c(OCC(F)(F)F)nc2[nH]1 [Example 11, 2-(2,2,2-trifluoroethoxy)-3-[4-(2,2,2-trifluoroethoxy)phenyl]pyrido[2,3-d]pyrimidine-4,7(3H,8H)-dione]
97% | 89% | 88% | – | – | CS(=O)(=O)CCCOc1nc2[nH]c(=O)ccc2c(=O)n1-c1ccc(OCC(F)(F)F)cc1 [Example 13, 2-[3-(methylsulfonyl)propoxy]-3-[4-(2,2,2-trifluoroethoxy)phenyl]pyrido[2,3-d]pyrimidine-4,7(3H,8H)-dione]
103% | – | 103% | – | – | COCC(F)(F)COc1nc2[nH]c(=O)ccc2c(=O)n1-c1ccc(OCC(F)(F)F)cc1 [Example 14, 2-(2,2-difluoro-3-methoxypropoxy)-3-[4-(2,2,2-trifluoroethoxy)phenyl]pyrido[2,3-d]pyrimidine-4,7(3H,8H)-dione]
105% | 99% | 103% | – | – | O=c1ccc2c(=O)n(-c3ccc(OCC(F)(F)F)cc3)c(OCC(F)(F)CO)nc2[nH]1 [Example 17, 2-(2,2-difluoro-3-hydroxypropoxy)-3-[4-(2,2,2-trifluoroethoxy)phenyl]pyrido[2,3-d]pyrimidine-4,7(3H,8H)-dione]
92% | 84% | 95% | – | – | COc1nc2[nH]c(=O)ccc2c(=O)n1-c1ccc(OCC(F)(F)F)cc1 [Example 18, 2-methoxy-3-[4-(2,2,2-trifluoroethoxy)phenyl]pyrido[2,3-d]pyrimidine-4,7(3H,8H)-dione]
90% | 85% | – | – | – | CCNc1nc2[nH]c(=O)ccc2c(=O)n1-c1ccc(OCC(F)(F)F)cc1 [Example 19, 2-(ethylamino)-3-[4-(2,2,2-trifluoroethoxy)phenyl]pyrido[2,3-d]pyrimidine-4,7(3H,8H)-dione]
104% | 97% | 97% | – | – | CC(C)Oc1nc2[nH]c(=O)ccc2c(=O)n1-c1ccc(OCC(F)(F)F)cc1 [Example 20, 2-(1-methylethoxy)-3-[4-(2,2,2-trifluoroethoxy)phenyl]pyrido[2,3-d]pyrimidine-4,7(3H,8H)-dione]
97% | 93% | – | – | – | CSc1nc2c(c(=O)n1-c1ccc(OCC(F)(F)F)cc1)CCC(=O)N2 [Example 21, 2-(methylsulfanyl)-3-[4-(2,2,2-trifluoroethoxy)phenyl]-5,6-dihydropyrido[2,3-d]pyrimidine-4,7(3H,8H)-dione]
101% | 95% | 109% | – | – | CCSc1nc2c(c(=O)n1-c1ccc(OCC(F)(F)F)cc1)CCC(=O)N2 [Example 24, 2-(ethylsulfanyl)-3-[4-(2,2,2-trifluoroethoxy)phenyl]-5,6-dihydropyrido[2,3-d]pyrimidine-4,7(3H,8H)-dione]
98% | 98% | 92% | – | – | CCSc1nc2c(c(=O)n1-c1ccc(OCC(F)(F)F)cc1)SCC(=O)N2 [Example 25, 2-(ethylsulfanyl)-3-[4-(2,2,2-trifluoroethoxy)phenyl]-3H-pyrimido[5,4-b][1,4]thiazine-4,7(6H,8H)-dione]
102% | 96% | 107% | – | – | CCSc1nc2nc(N)ccc2c(=O)n1-c1ccc(OCC(F)(F)F)cc1 [Example 26, 7-amino-2-(ethylsulfanyl)-3-[4-(2,2,2-trifluoroethoxy)phenyl]pyrido[2,3-d]pyrimidin-4(3H)-one]
– | 89% | 92% | – | – | CCCc1nc2c(c(=O)n1-c1ccc(OCC(F)(F)F)cc1)CCC(=O)N2 [Example 40, 2-propyl-3-[4-(2,2,2-trifluoroethoxy)phenyl]-5,6-dihydropyrido[2,3-d]pyrimidine-4,7(3H,8H)-dione]
